Results from patent US20250120967A1, “TYROSINE KINASES INHIBITORS AND USES THEREOF” (GREAT NOVEL THERAPEUTICS BIOTECH & MEDICALS CORPORATION, priority 2023, published 2025).

Tests used:
Assay in all cases: Tyrosine kinase inhibition assay
Type in all cases: biochemical
Conditions in all cases: single concentration 1.0 μM, read-out: percent inhibition
AKT1 (PKB alpha) = AKT1 (PKB alpha) (Homo sapiens, UniProt P31749)
Protocol: (§1) Tyrosine kinase inhibition assays were performed at ThermoFisher Life Technologies (Madison, WI, USA) using standard protocols (SelectScreen Biochemical Profiling Service, Thermo Fisher Scientific). ATP concentrations used were at the apparent Km. Test compounds were screened in 1% dimethylsulffoxide (DMSO) (final concentration) in the well. For 10-point titrations, 3-fold serial dilutions were conducted from the starting concentration of […]. All Peptide/Kinase Mixtures were diluted to a 2× working concentration in the appropriate Kinase Buffer. All ATP Solutions were diluted to a 4× working concentration in Kinase Buffer (50 mM HEPES pH 7.5, 0.01% BRIJ-35, 10 mM MgCl2, 1 mM EGTA). The apparent ATP Km was previously determined using a Z′-LYTE assay. The Development Reagent was diluted in Development Buffer.
(§2) The inhibition activities of compounds were determined in biochemical assays using single concentration (1.0 μM) measurements. The results were provided as percent inhibition values. A compound displaying a percent inhibition value of greater 80% was defined as a hit. 99 different tyrosine kinases were used.

EPHA3 = target: T1, EPHA3 (Homo sapiens, UniProt P29320)
T1 sequence (P29320 21-983): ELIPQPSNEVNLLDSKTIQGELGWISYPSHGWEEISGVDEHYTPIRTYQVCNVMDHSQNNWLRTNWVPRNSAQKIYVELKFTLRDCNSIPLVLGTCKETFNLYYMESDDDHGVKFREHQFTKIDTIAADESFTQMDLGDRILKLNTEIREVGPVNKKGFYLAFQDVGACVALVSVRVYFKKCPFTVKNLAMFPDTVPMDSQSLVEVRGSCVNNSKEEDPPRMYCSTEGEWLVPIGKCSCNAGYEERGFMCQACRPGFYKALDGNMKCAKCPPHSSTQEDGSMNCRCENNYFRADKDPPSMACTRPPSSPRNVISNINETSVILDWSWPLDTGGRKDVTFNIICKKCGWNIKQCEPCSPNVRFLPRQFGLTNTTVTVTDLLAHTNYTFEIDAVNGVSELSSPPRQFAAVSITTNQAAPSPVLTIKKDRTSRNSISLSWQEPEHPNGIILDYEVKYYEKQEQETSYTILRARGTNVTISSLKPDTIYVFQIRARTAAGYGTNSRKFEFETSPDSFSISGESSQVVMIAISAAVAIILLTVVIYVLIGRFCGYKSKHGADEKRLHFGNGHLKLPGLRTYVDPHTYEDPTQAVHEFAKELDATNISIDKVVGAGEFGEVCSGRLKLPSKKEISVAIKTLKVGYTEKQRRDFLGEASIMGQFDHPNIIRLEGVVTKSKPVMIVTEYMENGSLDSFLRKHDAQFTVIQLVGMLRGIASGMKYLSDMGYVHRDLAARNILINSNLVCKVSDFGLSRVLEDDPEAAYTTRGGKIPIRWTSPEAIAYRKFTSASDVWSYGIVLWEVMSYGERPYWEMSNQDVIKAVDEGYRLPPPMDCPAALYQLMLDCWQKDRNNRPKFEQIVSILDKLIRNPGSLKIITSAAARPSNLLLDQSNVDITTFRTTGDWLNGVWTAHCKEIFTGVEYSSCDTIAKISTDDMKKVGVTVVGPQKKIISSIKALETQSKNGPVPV
Protocol: as §1, §2

EPHB4 = target: T2, EPHB4 (Homo sapiens, UniProt P54760)
T2 sequence (P54760 16-987): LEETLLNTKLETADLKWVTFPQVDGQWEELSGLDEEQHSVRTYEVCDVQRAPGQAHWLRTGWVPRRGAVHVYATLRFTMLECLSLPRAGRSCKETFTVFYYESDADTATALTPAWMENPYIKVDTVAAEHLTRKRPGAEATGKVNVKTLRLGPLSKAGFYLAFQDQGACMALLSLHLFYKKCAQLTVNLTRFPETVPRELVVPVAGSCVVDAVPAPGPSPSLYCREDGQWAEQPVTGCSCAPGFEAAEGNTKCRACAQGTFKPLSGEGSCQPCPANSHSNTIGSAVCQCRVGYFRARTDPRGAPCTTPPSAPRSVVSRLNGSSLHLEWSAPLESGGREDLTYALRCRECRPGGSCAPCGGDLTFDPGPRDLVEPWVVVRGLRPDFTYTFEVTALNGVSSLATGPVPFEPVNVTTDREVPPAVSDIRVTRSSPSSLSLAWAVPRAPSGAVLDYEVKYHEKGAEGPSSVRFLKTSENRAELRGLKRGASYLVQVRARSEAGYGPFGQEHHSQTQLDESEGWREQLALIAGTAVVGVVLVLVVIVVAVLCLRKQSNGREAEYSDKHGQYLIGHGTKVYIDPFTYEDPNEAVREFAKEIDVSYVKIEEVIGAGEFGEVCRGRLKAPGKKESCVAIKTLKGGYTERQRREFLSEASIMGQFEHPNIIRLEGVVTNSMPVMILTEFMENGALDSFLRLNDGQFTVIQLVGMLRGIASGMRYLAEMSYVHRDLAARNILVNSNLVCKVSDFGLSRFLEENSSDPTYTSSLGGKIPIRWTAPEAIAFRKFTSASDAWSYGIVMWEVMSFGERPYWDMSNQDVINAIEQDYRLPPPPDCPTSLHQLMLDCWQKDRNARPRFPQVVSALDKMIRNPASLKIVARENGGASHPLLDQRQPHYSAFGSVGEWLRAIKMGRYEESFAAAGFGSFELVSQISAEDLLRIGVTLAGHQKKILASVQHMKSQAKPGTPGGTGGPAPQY
Protocol: as §1, §2

FES (FPS) = FES (FPS) (Homo sapiens, UniProt P07332)
Sequence of FES (FPS) (P07332 whole entry): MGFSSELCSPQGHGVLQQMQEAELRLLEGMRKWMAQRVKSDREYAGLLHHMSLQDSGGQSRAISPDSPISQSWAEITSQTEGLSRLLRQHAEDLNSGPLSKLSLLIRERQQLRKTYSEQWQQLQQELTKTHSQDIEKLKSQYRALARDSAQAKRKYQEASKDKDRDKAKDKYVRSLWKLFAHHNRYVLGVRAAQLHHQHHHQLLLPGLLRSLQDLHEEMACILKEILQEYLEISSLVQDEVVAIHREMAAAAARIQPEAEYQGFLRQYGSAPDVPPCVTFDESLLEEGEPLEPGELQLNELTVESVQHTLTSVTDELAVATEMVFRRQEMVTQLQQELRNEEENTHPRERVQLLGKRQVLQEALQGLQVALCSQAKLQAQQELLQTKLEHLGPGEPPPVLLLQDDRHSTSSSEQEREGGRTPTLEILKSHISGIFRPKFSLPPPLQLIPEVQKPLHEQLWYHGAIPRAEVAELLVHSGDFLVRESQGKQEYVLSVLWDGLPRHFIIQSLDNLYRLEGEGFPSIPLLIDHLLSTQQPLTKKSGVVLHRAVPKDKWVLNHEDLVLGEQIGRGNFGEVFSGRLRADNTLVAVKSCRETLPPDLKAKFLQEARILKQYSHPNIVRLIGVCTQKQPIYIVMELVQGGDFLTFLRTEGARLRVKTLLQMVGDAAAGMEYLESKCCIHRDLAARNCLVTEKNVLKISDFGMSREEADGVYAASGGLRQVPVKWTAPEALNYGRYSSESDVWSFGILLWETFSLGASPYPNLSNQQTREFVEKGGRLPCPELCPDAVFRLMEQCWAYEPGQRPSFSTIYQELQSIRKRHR
Protocol: as §1, §2

IGF1R = IGF1R (Homo sapiens, UniProt P08069)
Sequence of IGF1R (P08069 31-1367): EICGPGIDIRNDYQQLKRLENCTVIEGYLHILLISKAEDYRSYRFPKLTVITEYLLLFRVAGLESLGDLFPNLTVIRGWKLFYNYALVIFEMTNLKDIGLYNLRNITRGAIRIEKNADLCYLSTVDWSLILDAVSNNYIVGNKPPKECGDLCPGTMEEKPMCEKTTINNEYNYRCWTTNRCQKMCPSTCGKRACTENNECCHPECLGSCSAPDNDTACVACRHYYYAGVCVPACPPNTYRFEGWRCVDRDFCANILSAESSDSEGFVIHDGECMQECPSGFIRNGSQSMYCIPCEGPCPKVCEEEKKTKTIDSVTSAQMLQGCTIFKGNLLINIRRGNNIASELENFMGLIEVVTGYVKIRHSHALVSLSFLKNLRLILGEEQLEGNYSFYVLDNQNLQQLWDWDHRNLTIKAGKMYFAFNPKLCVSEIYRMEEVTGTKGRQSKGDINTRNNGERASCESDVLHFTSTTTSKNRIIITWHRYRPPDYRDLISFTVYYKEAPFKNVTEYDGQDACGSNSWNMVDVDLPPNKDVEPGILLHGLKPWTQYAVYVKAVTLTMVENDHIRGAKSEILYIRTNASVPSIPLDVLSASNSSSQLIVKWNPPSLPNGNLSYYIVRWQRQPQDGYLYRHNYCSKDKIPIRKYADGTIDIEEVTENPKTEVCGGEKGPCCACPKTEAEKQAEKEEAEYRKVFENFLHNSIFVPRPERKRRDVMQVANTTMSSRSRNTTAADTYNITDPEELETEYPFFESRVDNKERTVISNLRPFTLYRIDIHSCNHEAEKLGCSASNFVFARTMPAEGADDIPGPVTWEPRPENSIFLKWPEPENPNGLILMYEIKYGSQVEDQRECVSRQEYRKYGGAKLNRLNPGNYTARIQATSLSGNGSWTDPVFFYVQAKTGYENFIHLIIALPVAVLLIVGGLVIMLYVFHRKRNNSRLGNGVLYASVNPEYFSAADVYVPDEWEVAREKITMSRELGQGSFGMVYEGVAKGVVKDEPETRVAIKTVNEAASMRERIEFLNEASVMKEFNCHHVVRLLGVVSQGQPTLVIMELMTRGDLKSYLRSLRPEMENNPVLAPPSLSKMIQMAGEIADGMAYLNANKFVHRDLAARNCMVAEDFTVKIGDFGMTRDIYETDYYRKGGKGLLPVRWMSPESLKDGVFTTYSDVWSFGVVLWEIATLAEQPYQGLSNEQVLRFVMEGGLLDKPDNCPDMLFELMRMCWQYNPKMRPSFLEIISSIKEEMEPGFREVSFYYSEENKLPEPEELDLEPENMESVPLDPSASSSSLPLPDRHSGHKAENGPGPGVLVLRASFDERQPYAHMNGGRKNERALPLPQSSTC
Protocol: as §1, §2

TYK2 = TYK2 (Homo sapiens, UniProt P29597)
Sequence of TYK2 (P29597 whole entry): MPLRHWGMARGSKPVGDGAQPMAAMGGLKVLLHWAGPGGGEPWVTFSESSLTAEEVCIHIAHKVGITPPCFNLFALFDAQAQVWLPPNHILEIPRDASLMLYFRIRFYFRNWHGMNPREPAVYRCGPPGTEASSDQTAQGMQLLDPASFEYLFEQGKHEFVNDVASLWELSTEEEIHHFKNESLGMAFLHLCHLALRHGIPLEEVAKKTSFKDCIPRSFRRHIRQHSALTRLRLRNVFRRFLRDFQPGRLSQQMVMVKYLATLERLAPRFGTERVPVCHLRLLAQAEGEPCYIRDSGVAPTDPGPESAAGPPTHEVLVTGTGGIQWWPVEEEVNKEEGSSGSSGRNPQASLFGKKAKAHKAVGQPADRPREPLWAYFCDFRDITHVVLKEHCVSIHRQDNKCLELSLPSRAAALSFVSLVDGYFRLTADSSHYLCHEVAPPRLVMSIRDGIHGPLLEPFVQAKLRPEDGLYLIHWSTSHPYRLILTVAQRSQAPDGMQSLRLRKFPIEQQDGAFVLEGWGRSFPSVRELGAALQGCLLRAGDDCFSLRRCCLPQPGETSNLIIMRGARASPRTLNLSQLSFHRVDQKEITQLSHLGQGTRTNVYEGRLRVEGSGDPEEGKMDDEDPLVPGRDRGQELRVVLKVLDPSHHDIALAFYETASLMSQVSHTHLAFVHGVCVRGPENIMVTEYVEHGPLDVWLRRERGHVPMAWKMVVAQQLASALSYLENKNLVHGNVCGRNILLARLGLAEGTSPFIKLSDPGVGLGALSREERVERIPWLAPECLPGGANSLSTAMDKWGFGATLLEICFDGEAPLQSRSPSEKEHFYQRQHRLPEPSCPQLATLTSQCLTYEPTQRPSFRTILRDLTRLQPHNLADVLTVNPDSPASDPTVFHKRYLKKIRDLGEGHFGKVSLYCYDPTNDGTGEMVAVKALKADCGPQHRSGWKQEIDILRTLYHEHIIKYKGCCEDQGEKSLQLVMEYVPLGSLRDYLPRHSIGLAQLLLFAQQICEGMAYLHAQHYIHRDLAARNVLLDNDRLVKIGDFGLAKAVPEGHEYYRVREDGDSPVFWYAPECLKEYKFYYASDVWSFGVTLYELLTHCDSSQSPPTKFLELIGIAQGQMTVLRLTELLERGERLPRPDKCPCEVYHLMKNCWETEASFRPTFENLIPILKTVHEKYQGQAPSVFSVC
Protocol: as §1, §2

Sequence of AKT1 (PKB alpha) (P31749 whole entry): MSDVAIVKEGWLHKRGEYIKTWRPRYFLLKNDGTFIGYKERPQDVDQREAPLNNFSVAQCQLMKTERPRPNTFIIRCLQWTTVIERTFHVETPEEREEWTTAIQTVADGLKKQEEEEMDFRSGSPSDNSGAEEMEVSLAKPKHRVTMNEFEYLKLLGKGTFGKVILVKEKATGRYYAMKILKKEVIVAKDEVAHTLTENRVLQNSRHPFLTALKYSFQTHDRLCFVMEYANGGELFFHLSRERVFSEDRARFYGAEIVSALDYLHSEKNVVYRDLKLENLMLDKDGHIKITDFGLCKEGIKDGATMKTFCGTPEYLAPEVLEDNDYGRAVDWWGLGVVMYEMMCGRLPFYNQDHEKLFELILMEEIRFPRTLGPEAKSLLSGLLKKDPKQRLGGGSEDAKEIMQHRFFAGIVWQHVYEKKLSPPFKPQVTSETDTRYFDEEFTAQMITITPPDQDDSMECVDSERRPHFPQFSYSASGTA

SMILES | inhibition at 1 µM (AKT1 (PKB alpha)) | inhibition at 1 µM (EPHA3) | inhibition at 1 µM (EPHB4) | inhibition at 1 µM (FES (FPS)) | inhibition at 1 µM (IGF1R) | inhibition at 1 µM (TYK2)
COc1cc2nccc(Oc3ccc(NC(=O)C4(C(=O)Nc5ccc(F)cc5)CC4)cc3)c2cc1OC [Cabozantinib, reference compound] | 3% | 100% | 93% | 30% | 15% | 9%
COc1cc2nccc(Oc3ccc(NC(=O)C4(NC(=O)c5ccc(F)cc5)CC4)cc3F)c2cc1OC [Cbo-02, N-(1-((4-((6,7-diMethoxyquinolin-4-yl)oxy)-3-fluorophenyl)carbamoyl)cyclopropyl)-4-fluorobenzamide] | 2% | -3% | 27% | 38% | 13% | 7%
COc1cc2nccc(Oc3ccc(NC(=O)C4(NC(=O)c5ccc(F)cc5)CC4)cc3F)c2cc1Oc1ccc(N)cc1F [Cbo-10] | 0% | 14% | 50% | 80% | 27% | 9%
COc1cc2nccc(Oc3ccc(NC(=O)C4(NC(=O)c5ccc(F)cc5)CC4)cc3F)c2cc1Oc1c(F)cc(N)cc1F [Cbo-14] | 2% | 24% | 76% | 78% | 35% | 16%
COc1cc2nccc(Oc3ccc(NC(=O)C4(C(=O)Nc5ccc(F)cc5)CC4)cc3F)c2cc1Oc1ccc(N)cc1F [Cbo-23] | 4% | 97% | 103% | 58% | 52% | 7%
